Like-named read-outs stand apart in the source and are kept apart here.
Assays:
[1] = test system: primary mouse CD4^+ T cells; test: MTS proliferation assay; format: cell-based; details: for IC50: Mus musculus, CD4+ T; for reversal of TGFβ-mediated inhibition of T cell proliferation (in words): mouse CD4^+ T cells, 1 nM TGF-β1
Experimental: Compounds A-D were tested to determine whether they could inhibit TGF-β signaling in primary mouse CD4^+ T cells.
Primary mouse CD4^+ T cells were isolated from the spleens of C57/B6 mice using the RoboSep™ cell isolation system (Stemcell Technologies). 0.5 μg/ml of hamster anti-mouse CD3e antibody (145-2C11; eBioscience) was coated onto a 96 well flat bottom plate overnight. 1×10^5 purified CD4^+ T cells were incubated with 1 μg/ml soluble hamster anti-mouse CD28 antibody (37.51, BD Biosciences), 1 nM TGF-β1 and 8-fold serial dilutions of Compounds A-D. After 72 hours, cell proliferation was measured using an MTS assay (Promega) in accordance with the manufacturer's instructions.

[2] = test system: TGF-β-induced luciferase activity in HEK293T cells; test: TGF-β-induced SMAD luciferase reporter assay in HEK293T cells; format: cell-based; details: Homo sapiens, HEK-293T, 24 hours
Experimental: Compounds A-D were tested to determine whether they could inhibit TGF-β-induced luciferase activity in HEK293T cells in vitro.
30,000 HEK293T cells were seeded in a 96 well white flat bottom plate overnight. The next day 100 ng of a SMAD luciferase reporter plasmid per well was transfected into the cells using lipofectamine for 24 hours. The next day cells were treated with Compounds A-D and […] TGFβ for 24 hours. Luciferase activity was measured using the Dual-Glo® luciferase assay kit (Promega). The assay was run twice for Compounds A, B, and D, and three times for Compound C.

[3] = test system: Mouse CTLL2 cells; test: CTLL2 proliferation assay (BrdU ELISA); format: cell-based
Experimental: Mouse CTLL2 cells were cultured at 1×10^5 cells/well in 0.2 ng/ml IL2. To each well as indicated 1 nM TGF-β, 1 μg/ml ADC, and/or 100 nM ALK5 inhibitor Compound C was added to the wells for 24 hours. Proliferation was quantitated via addition of the BrdU reagent (Abcam) to each well for another 12 hours and then analyzed by ELISA.

[4] = test system: Naïve CD4 T cells (iTreg FoxP3 expression); test: iTreg conversion assay; format: cell-based, mouse
Experimental: Naïve CD4 T cells were isolated from isolated mouse spleenocytes using a negative selection kit. The cell density was adjusted to 0.4×10^6 cells/ml, and 10 ng/ml of mouse IL-2, 20 ng/ml of TGF-β, and 1 μg/ml of soluble anti-CD28 was added to the cell suspension.
Anti-mouse CD3 antibody at 10 μg/ml was coated on a 24 well plate and incubated at 4° C. overnight. The antibody was then aspirated from the plate. 1 ml of the cell suspension was added to each well of the 24 well plate. ADC1 (DAR 4-6) at 3 μg/ml and 5 μg/ml, anti-transferrin receptor antibody, rat anti-mouse IgG2A isotype control ALK5 ADC, and ALK5 inhibitor Compound C at 100 nM and 1 μM were added to separate wells of the 24 well plate. The cells were then cultured for 72 hours. TfR expression was tested at 48 hours (data not shown). Cells were stained for FoxP3 (eBioscience FoxP3 staining buffer) and sorted by FACS at 72 hours.

[5] = test system: GzmB expression in primary CD8^+ T cells; test: Granzyme B expression assay; format: cell-based, mouse; details: 1 nM TGF-β, ADC1 at DARs 2-4, 4-6 and 6-8, flow cytometry
Experimental: Mouse CD3^+ T cells were purified from mouse spleens using the EasySep™ Mouse T cell isolation kit (negative selection) (Stemcell Technologies). CD3^+ T cells were activated as before using plate bound antiCD3e and soluble anti-CD28 for 48 hours. T cells were washed and re-plated in media with 5% serum plus 1 nM TGF-β−/+ADC.
Golgi stop reagent was added for the last 4 hours and then the cells were immunostained for surface CD8 (BD) and intracellular GzmB (eBioscience) and analyzed via flow cytometry. Granzyme B (GzmB) is a serine protease released by CD8^+ T cells to kill tumor cells. Thus, increased expression of GzmB is indicative of CD8^+ cytotoxic T cell activation.

[6] = Experiment 1, anti-CD3e/anti-CD28, 1 nM TGF-β1, 72 hours
[7] = Experiment 2, anti-CD3e/anti-CD28, 1 nM TGF-β1, 72 hours, read-out: Experiment 2 IC50
[8] = Experiment 1, 100 μM TGFβ, read-out: Experiment 1 IC50
[9] = Experiment 2, 100 μM TGFβ, read-out: Experiment 2 IC50
[10] = Experiment 1, anti-CD3e/anti-CD28, 1 nM TGF-β1, 72 hours, read-out: Experiment 1 IC50

Row | Compound | Experiment 1 IC50 [1, 6] | IC50 [1, 7] [µM] | reversal of TGFβ-mediated inhibition of T cell proliferation (in words) [1] | IC50 [2, 8] [µM] | IC50 [2, 9] [µM] | IC50 [1, 10] [µM] | restoration of CTLL2 proliferation in presence of TGF-β ([3]; 100 nM ALK5 inhibitor Compound C, 1 nM TGF-β, 24 hours) | IC50 ([2]; Experiment 3, 100 μM TGFβ, read-out: Experiment 3 IC50) [µM] | amount of iTreg generated ([4]; 100 nM free ALK5 inhibitor, 20 ng/ml TGF-β, 72 hours) | iTreg generation ([4]; 100 nM of free ALK5 inhibitor (FIG. 12 legend)) | restoration of GzmB expression ([5]; listed as ALK5 compound) | restoration of GzmB expression ([5]; listed as free ALK5 inhibitor) | Experiment 2 IC50 ([1]; Experiment 2, anti-CD3e/anti-CD28, 1 nM TGF-β1, 72 hours) | inhibition of CTLL2 proliferation ([3]; 1 nM TGF-β alone)
1 | Cc1cccc(-c2nc(N)sc2-c2ccc3ncccc3n2)n1 [Compound A, 4-(6-methylpyridin-2-yl)-5-(1,5-naphthyridin-2-yl)thiazol-2-amine] | Value not obtained | 0.153 | did not show consistent effects | 0.0187 | 0.0298 | – | – | – | – | – | – | – | – | –
2 | CNCCOc1ccc(-c2cc(-c3c[nH]nc3-c3ccccn3)ccn2)cc1 [Compound B, N-methyl-2-(4-(4-(3-(pyridin-2-yl)-1H-pyrazol-4-yl)pyridin-2-yl)phenoxy)ethan-1-amine] | – | 0.034 | reversed TGFβ-mediated inhibition of T cell proliferation | 0.0518 | 0.0113 | 0.06 | – | – | – | – | – | – | – | –
3 | CNCCOc1ccc(-c2cc(-c3c[nH]nc3-c3cccc(C)n3)ccn2)cc1 [Compound C, N-methyl-2-(4-(4-(3-(6-methylpyridin-2-yl)-1H-pyrazol-4-yl)pyridin-2-yl)phenoxy)ethan-1-amine] | – | 0.033 | reversed TGFβ-mediated inhibition of T cell proliferation | 0.0101 | 0.0212 | 0.02 | almost complete reversal of TGF-β inhibition and restoration of CTLL2 proliferation | 0.0132 | modestly decreased the amount of iTreg generated | decreases iTreg generation | restore GzmB expression | partially restores Granzyme B expression | – | –
4 | CCNC(=O)c1ccc2c(c1)NC(=O)/C2=C(\Nc1ccc(N(CCNC)S(C)(=O)=O)cc1)c1ccccc1 [Compound D, (Z)-N-ethyl-3-(((4-(N-(2-(methylamino)ethyl)methylsulfonamido)phenyl)amino)(phenyl)methylene)-2-oxoindoline-6-carboxamide] | Value not obtained | – | an IC50 value was not obtained | 1.07 | 1.52 | – | – | – | – | – | – | – | Value not obtained | –
5 | TGF-β | – | – | – | – | – | – | – | – | – | – | – | – | – | approximately 60%

Reference: patent US12473377B2, “Antibody-ALK5 inhibitor conjugates and their uses” (Synthis Therapeutics, Inc., priority 2016, dated 2025)
